Structures are written as SMILES.

The experiment deals with beta-TC6 cells. As to the kind of experiment: Insulin HTRF assay, relative activity Ar normalized to sunitinib. It is filed as cell-based. The note with it: Mus musculus, normalized to positive control sunitinib (5 µM = 100%), Table 10. In outline: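 Relative activity Ar was scaled between 0% and 100% controls, with sunitinib at 5 µM f.c. as reference. Insulin released by beta-TC6 cells was quantified by sandwich HTRF (Eu-cryptate/XL665 antibodies, 120 min RT). Cells had been seeded 24 or 48 h, then treated 2–4 h at 37°C in induction buffer, 0.5% DMSO.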
On the technique in general: TR-FRET usually uses a lanthanide donor and a delayed reading to cut background.
As usually defined, the Emax is the size of the effect at its maximum, as opposed to the concentration needed. The compound `COc1cc(-c2ccc3nnc(-c4ccoc4)n3c2)cc(OC)c1OC` [compound 219, 3-(3-furyl)-6-(3,4,5-trimethoxyphenyl)-[1,2,4]triazolo[4,3-a]pyridine] showed a maximal effect (Emax) of 50 to 100%.
The value for `COc1ccc(-c2nnc3ccc(C#Cc4ccncc4)cn23)cc1OC` [compound 190, 3-(3,4-dimethoxyphenyl)-6-[2-(4-pyridyl)ethynyl]-[1,2,4]triazolo[4,3-a]pyridine] was 50 to 100%; that for `COc1ccc(-c2cnc3cnc(-c4ccc(N)nc4)cn23)cc1` [compound 363, 5-[3-(4-methoxyphenyl)imidazo[1,2-a]pyrazin-6-yl]pyridin-2-amine] was 20 to 50%.
The value for `O=C(O)CCc1ccc(-c2cnc3cnc(-c4ccccc4CO)cn23)cc1` [compound 333, 3-[4-[6-[2-(hydroxymethyl)phenyl]imidazo[1,2-a]pyrazin-3-yl]phenyl]propanoic acid] was 20 to 50%; that for `NC(=O)c1ccc(-c2ccc3ncc(-c4ccccc4)n3n2)cc1` [compound 100, 4-(3-phenylimidazo[1,2-b]pyridazin-6-yl)benzamide] was 20 to 50%; that for `CC(=O)c1cccc(-c2cnc3cnc(-c4cccnc4)cn23)c1` [compound 409, 1-[3-[6-(3-pyridyl)imidazo[1,2-a]pyrazin-3-yl]phenyl]ethanone] was 20 to 50%.
`CC(C(=O)Nc1cnc2cnc(-c3cccc([N+](=O)[O-])c3)cn12)c1ccccc1` (centres unmarked) [compound 271, N-[6-(3-nitrophenyl)imidazo[1,2-a]pyrazin-3-yl]-2-phenyl-propanamide] registered an Emax of 20 to 50%.
The compound `COc1ccc(-c2cnc3ccc(NCc4ccccn4)nn23)cc1OC` [compound 47, 3-(3,4-dimethoxyphenyl)-N-(2-pyridylmethyl)imidazo[1,2-b]pyridazin-6-amine] had an Emax of 20 to 50%.
As to `OCc1cccc(-c2ccc3nnc(-c4ccccn4)n3c2)c1` [compound 248, [3-[3-(2-pyridyl)-[1,2,4]triazolo[4,3-a]pyridin-6-yl]phenyl]methanol], the Emax is 20 to 50%.
The value for `Oc1ccc(-c2cnc3cnc(-c4ccc(Cl)cc4)cn23)cc1` [compound 324, 4-[6-(4-chlorophenyl)imidazo[1,2-a]pyrazin-3-yl]phenol] was 20 to 50%; that for `OCc1ccc(-c2cn3c(-c4cccc(Cl)c4)cnc3cn2)cc1` [compound 360, [4-[3-(3-chlorophenyl)imidazo[1,2-a]pyrazin-6-yl]phenyl]methanol] was 20 to 50%; that for `Nc1ccc(-c2ccc3nnc(-c4cccc(C(F)(F)F)c4)n3c2)cn1` [compound 214, 5-[3-[3-(trifluoromethyl)phenyl]-[1,2,4]triazolo[4,3-a]pyridin-6-yl]pyridin-2-amine] was 20 to 50%.
Under `FC(F)(F)Oc1cccc(-c2ccc3nnc(-c4ccncc4)n3c2)c1` [compound 178, 3-(4-pyridyl)-6-[3-(trifluoromethoxy)phenyl]-[1,2,4]triazolo[4,3-a]pyridine] stands 20 to 50%; under `OCc1cccc(-c2cnc3ccc(-c4cccc(Oc5ccccc5)c4)nn23)c1` [compound 133, [3-[6-(3-phenoxyphenyl)imidazo[1,2-b]pyridazin-3-yl]phenyl]methanol], 20 to 50%; under `Cc1ccc(CNc2ccc3ncc(-c4ccc(O)cc4)n3n2)c(C)c1` [compound 52, 4-[6-[(2,4-dimethylphenyl)methylamino]imidazo[1,2-b]pyridazin-3-yl]phenol], 20 to 50%.
Under `c1cc(-c2nnc3ccc(-c4ccc(N5CCOCC5)cc4)cn23)ccn1` [compound 176, 4-[4-[3-(4-pyridyl)-[1,2,4]triazolo[4,3-a]pyridin-6-yl]phenyl]morpholine] stands 20 to 50%; under `N#Cc1ccc(-c2cnc3cnc(-c4ccccc4)cn23)cc1` [compound 335, 4-(6-phenylimidazo[1,2-a]pyrazin-3-yl)benzonitrile], 20 to 50%; under `Oc1cccc(-c2cnc3cnc(-c4cccc(Cl)c4)cn23)c1` [compound 368, 3-[6-(3-chlorophenyl)imidazo[1,2-a]pyrazin-3-yl]phenol], 20 to 50%.
`FC(F)(F)Oc1cccc(-c2nnc3ccc(-c4cccs4)cn23)c1` [compound 195, 6-(2-thienyl)-3-[3-(trifluoromethoxy)phenyl]-[1,2,4]triazolo[4,3-a]pyridine] gave an Emax of 50 to 100%.
The value for `CCOc1cccc(-c2cn3c(-c4ccc(O)c(OC)c4)cnc3cn2)c1` [compound 395, 4-[6-(3-ethoxyphenyl)imidazo[1,2-a]pyrazin-3-yl]-2-methoxy-phenol] was 50 to 100%; that for `COc1ccc(-c2nnc3ccc(-c4cccc(C(=O)N(C)C)c4)cn23)cc1OC` [compound 188, 3-[3-(3,4-dimethoxyphenyl)-[1,2,4]triazolo[4,3-a]pyridin-6-yl]-N,N-dimethyl-benzamide] was 50 to 100%.
The value for `CC(C)(C)c1ccc(-c2cnc3cnc(-c4ccc(N)nc4)cn23)cc1` [compound 408, 5-[3-(4-tert-butylphenyl)imidazo[1,2-a]pyrazin-6-yl]pyridin-2-amine] was 10 to 20%; that for `c1cnc2cc(-c3nnc4ccc(-c5ccoc5)cn34)ccc2n1` [compound 245, 6-[6-(3-furyl)-[1,2,4]triazolo[4,3-a]pyridin-3-yl]quinoxaline] was 50 to 100%.
Under `Oc1cccc(-c2cnc3cnc(-c4ccc(Cl)cc4)cn23)c1` [compound 365, 3-[6-(4-chlorophenyl)imidazo[1,2-a]pyrazin-3-yl]phenol] stands 20 to 50%; under `c1cncc(CCNc2ccc3ncc(-c4ccc5ccccc5c4)n3n2)c1` [compound 25, 3-(2-naphthyl)-N-[2-(3-pyridyl)ethyl]imidazo[1,2-b]pyridazin-6-amine], 10 to 20%; under `CNc1ccc2ncc(-c3cccc(C(=O)N(C)C)c3)n2n1` [compound 61, N,N-dimethyl-3-[6-(methylamino)imidazo[1,2-b]pyridazin-3-yl]benzamide], 20 to 50%.
`Cc1cc(-c2cn3c(-c4ccncc4)cnc3cn2)cc(C)c1O` [compound 312, 2,6-dimethyl-4-[3-(4-pyridyl)imidazo[1,2-a]pyrazin-6-yl]phenol] had an Emax of 20 to 50%.
The value for `Clc1ccccc1-c1ccc2ncc(-c3cccs3)n2n1` [compound 158, 6-(2-chlorophenyl)-3-(2-thienyl)imidazo[1,2-b]pyridazine] was 10 to 20%.
The compound `COc1cccc(CC(=O)Nc2cnc3cnc(-c4ccc5[nH]ccc5c4)cn23)c1` [compound 254, N-[6-(1H-indol-5-yl)imidazo[1,2-a]pyrazin-3-yl]-2-(3-methoxyphenyl)acetamide] registered an Emax of 10 to 20%.
Under `N#Cc1cccc(-c2cnc3cccnn23)c1` [compound 82, 3-imidazo[1,2-b]pyridazin-3-ylbenzonitrile] stands 20 to 50%; under `OCc1ccc(-c2cn3c(-c4cccs4)cnc3cn2)cc1` [compound 422, [4-[3-(2-thienyl)imidazo[1,2-a]pyrazin-6-yl]phenyl]methanol], 20 to 50%.
The value for `COc1cc(-c2ccc3nnc(-c4ccc5nccnc5c4)n3c2)ccc1O` [compound 244, 2-methoxy-4-(3-quinoxalin-6-yl-[1,2,4]triazolo[4,3-a]pyridin-6-yl)phenol] was 50 to 100%; that for `CN(C)C(=O)c1ccc(-c2cnc3cnc(-c4ccsc4)cn23)cc1` [compound 431, N,N-dimethyl-4-[6-(3-thienyl)imidazo[1,2-a]pyrazin-3-yl]benzamide] was 20 to 50%.
Compound `COc1ccc(-c2ccc3nnc(-c4ccncc4)n3c2)cc1OC` [compound 177, 6-(3,4-dimethoxyphenyl)-3-(4-pyridyl)-[1,2,4]triazolo[4,3-a]pyridine] showed an Emax of 20 to 50%.
Under `COc1ccc(CNc2ccc3ncc(-c4ccc5[nH]ccc5c4)n3n2)cc1` [compound 37, 3-(1H-indol-5-yl)-N-[(4-methoxyphenyl)methyl]imidazo[1,2-b]pyridazin-6-amine] stands 20 to 50%.
Under `CN(C)c1ccc(-c2cnc3cnc(-c4ccccc4Cl)cn23)cc1` [compound 294, 4-[6-(2-chlorophenyl)imidazo[1,2-a]pyrazin-3-yl]-N,N-dimethyl-aniline] stands 20 to 50%.
The value for `N#Cc1ccc(-c2cnc3cnc(-c4cccs4)cn23)cc1` [compound 339, 4-[6-(2-thienyl)imidazo[1,2-a]pyrazin-3-yl]benzonitrile] was 20 to 50%; that for `COc1cc(OC)cc(-c2cn3c(-c4cccc(O)c4)cnc3cn2)c1` [compound 371, 3-[6-(3,5-dimethoxyphenyl)imidazo[1,2-a]pyrazin-3-yl]phenol] was 20 to 50%.
The compound `OCc1ccc(-c2ccc3ncc(-c4cccnc4)n3n2)cc1` [compound 106, [4-[3-(3-pyridyl)imidazo[1,2-b]pyridazin-6-yl]phenyl]methanol] returned an Emax of 20 to 50%.
Consider `CC(=O)Nc1cccc(-c2cn3c(-c4ccc(C(=O)N(C)C)cc4)cnc3cn2)c1` [compound 432, 4-[6-(3-acetamidophenyl)imidazo[1,2-a]pyrazin-3-yl]-N,N-dimethyl-benzamide], for which the Emax fell in the range of 20 to 50%.
Under `Cn1cc(-c2ccc3nnc(-c4ccc5c(c4)OCO5)n3c2)cn1` [compound 174, 3-(1,3-benzodioxol-5-yl)-6-(1-methylpyrazol-4-yl)-[1,2,4]triazolo[4,3-a]pyridine] stands 50 to 100%; under `Fc1cccc(-c2cnc3cnc(-c4ccc(Cl)cc4)cn23)c1` [compound 388, 6-(4-chlorophenyl)-3-(3-fluorophenyl)imidazo[1,2-a]pyrazine], 20 to 50%.
The compound `CCOc1ccc(-c2cnc3cccnn23)cc1` [compound 85, 3-(4-ethoxyphenyl)imidazo[1,2-b]pyridazine] registered an Emax of 10 to 20%.
The compound `CNc1ccc2ncc(/C=C\CCCO)n2n1` [compound 59, (Z)-5-[6-(methylamino)imidazo[1,2-b]pyridazin-3-yl]pent-4-en-1-ol] came in with an Emax of 10 to 20%.

The record behind these values is EP2818471A1, “Nitrogen bicyclic compounds as inhibitors for Scyl1 and Grk5” (Max-Planck-Gesellschaft zur Förderung der Wissenschaften …, priority 2013, dated 2014).
